Here are results for five molecules from patent US12173088B2, “Anti-microbial peptides” (priority 2018, dated 2024).

≈ marks a conversion by molar mass, not a printed value. Like-named read-outs stand apart in the source and are kept apart here. Square brackets hold non-standard residues; d marks the D form. Peptide text beside a SMILES is read from it. Orn = NCCC[C@H](N)C(=O)O

One data set deals with K. pneumoniae ATCC 13883. It counts as cell-based, Klebsiella pneumoniae. How it is done:
(§1) The antibacterial activity of peptides was evaluated using a standard broth microdilution protocol with minor modifications as described (Mishra, et al. (2012) J. Am. Chem. Soc., 134:12426-12429). In brief, logarithmic phase bacterial cultures (i.e., optical density at 600 nm≈0.5) were diluted to OD600 0.001 and partitioned into a 96-well polystyrene microplate at 90 μL per well. After treatment with 10 μL of peptide solutions two fold diluted to various concentrations, microplates were incubated at 37° C. overnight and read on a ChroMate® 4300 Microplate Reader at 630 nm (GMI, Ramsey, MN). […] To study the influence of medium conditions on the antimicrobial activity of peptides against S. aureus USA300, up to 200 mM sodium chloride (NaCl), 2 mM of calcium chloride, 5-10% of human serum, mouse plasma, fluid, or supernatants of tissue homogenates were included into the assays.
(§2) The bacterial strains used include the Gram-positive bacteria methicillin-resistant Staphylococcus aureus USA300, Enterococcus faecium V286-17 (VRE), S. aureus M838-17 (MRSA) and Gram-negative bacteria E. coli E423-17, E416-7 (ampC), P. aeruginosa E411-17, PA01, K. pneumoniae E406-17, ATCC13883, and A. baumannii B26-16. Bacteria were cultivated in tryptic soy broth (TSB) from BD Bioscience.
(§3) The antibacterial activity of peptides was evaluated using a standard broth microdilution protocol with minor modifications (Mishra, et al. (2017) Acta Biomater., 49:316-328). In brief, logarithmic phase bacterial cultures (i.e., optical density at 600 nm≈0.5) were diluted to 0.001 OD and aliquoted 90 μL per well into a 96-well polystyrene microplate. Added 10 μL peptides per well with various concentrations, plates were incubated at 37° C., overnight. Post incubation the plates are read at 630 nm using a ChroMate® Microplate Reader (GMI). […] To study the influence of medium conditions on the antimicrobial activity of peptides against S. aureus USA300 at different pHs (6.8, 7.2, and 8.0), 150 mM sodium chloride (NaCl), 5-10% of human serum, mouse plasma, and peritoneal fluid were included into the assays.

A further data set has as its system P. aeruginosa PAO1. In kind it is cell-based, Pseudomonas aeruginosa. How it is done: as §1, §2, §3
Another data set relates to S. aureus USA300. The experiment in a line: microbe, parasite or virus in culture. In kind it is cell-based, Staphylococcus aureus.
From the text: The bacterial strains used include the Gram-positive strains Staphylococcus aureus USA300 LAC, S. epidermidis 1457, and Bacillus subtilis 168, as well as the Gram-negative isolates Escherichia coli K12 and Acinetobacter baumannii B2367-12. Additional, drug resistance strains include Gram-positive Enterococcus faecium V286-17 (VRE) and S. aureus M838-17 (MRSA) and Gram-negative E. coli E423-17, E. coli E416-17 (ampC), and P. aeruginosa E411-17. Bacteria were cultivated in tryptic soy broth (TSB) (BD Bioscience, MD).
as §1, §2, §3

The subject of data set [1] is human red blood cells (hRBCs). The data set is described as follows: Hemolytic assay. It counts as cell-based. How it is done:
Briefly, human red blood cells (hRBCs) were washed three times with phosphate buffer saline (PBS) and diluted to a 2% solution (v/v). After peptide treatment, incubation at 37° C. for one hour, and centrifugation at 5000 rpm for 10 minutes, aliquots of the supernatant were carefully transferred to a fresh 96-well microplate. The amount of hemoglobin released was measured at 545 nm. The percent lysis was calculated by assuming 100% release when human blood cells were treated with 2% Triton™ X-100, and 0% release when incubated with PBS buffer. The peptide concentration that caused 50% lysis of hRBCs is defined as HL50. The cell selectivity index (CSI) was calculated as the ratio between HL50 and MIC of the corresponding peptide against a select pathogenic species.
Hemolytic assays of peptides were performed as described (Mishra, et al. (2017) Acta Biomater., 49:316-328). Briefly, human red blood cells (hRBCs) obtained from UNMC Blood Bank. The blood washed 3× with isotonic saline (0.9% NaCl) and diluted to 2% blood cells (v/v). Peptide horine and verine at various concentrations were added into the 2% blood cells and incubated at 37° C. for 1 hour. Post incubation the plates were spun at 2000 rpm for 10 minutes, aliquots of the supernatant were carefully transferred to a fresh 96-well microplate. The amount of cells lysed is proportional to the hemoglobin released and measured at 545 nm using a ChroMate® microplate reader. The percent lysis was calculated by assuming 100% release when human blood cells were treated with 1% Triton™ X-100, and 0% release when incubated with PBS. The peptide concentration that caused 50% lysis of hRBCs is defined as HL50.

The test system of a further data set is E. coli ATCC 25922. In kind it is cell-based, Escherichia coli. The protocol: as §1, §3

On to `CC(C)C[C@H](NC(=O)CN)C(=O)N[C@@H](CC(C)C)C(=O)N[C@@H](CO)C(=O)N[C@@H](CC(C)C)C(=O)N[C@@H](CC(C)C)C(=O)N[C@@H](CO)C(=O)N[C@@H](CC(C)C)C(=O)N[C@@H](CC(C)C)C(=O)NCC(=O)N[C@@H](CCCCN)C(=O)N[C@@H](CC(C)C)C(=O)N[C@@H](C)C(N)=O` [DFT513, GLLSLLSLLGKLA] (H-GLLSLLSLLGKLA-NH2; N-terminus assumed), for which, in the data set on K. pneumoniae ATCC 13883 (Table 2, quantified by UV), the “MIC K. pneumoniae” value was 12.5 to 25 µM. Besides, the “MIC P. aeruginosa PAO1” value with P. aeruginosa PAO1 (Table 2, quantified by UV) was more than 25 µM. Further, the “MIC S. aureus USA 300” value with S. aureus USA300 (Table 2, peptides amidated, quantified by UV) turned out to be 1.56 µM (≈ 2.02 µg/mL). Further, the HL50 in data set [1] (Table 2, lysis of 50% hRBCs (2% v/v)) is less than 3.1 µM. Further, in the data set on E. coli ATCC 25922 (Table 2, quantified by UV), the “MIC E. coli ATCC 25922” value lay in the range of 1.5 to 3.1 µM.

For `CC(C)C[C@H](NC(=O)[C@H](CC(C)C)NC(=O)[C@H](CCCCN)NC(=O)CNC(=O)[C@H](CC(C)C)NC(=O)[C@H](C)NC(=O)[C@H](CCCCN)NC(=O)[C@H](CC(C)C)NC(=O)[C@H](C)NC(=O)[C@H](CO)NC(=O)[C@H](CC(C)C)NC(=O)[C@H](CC(C)C)NC(=O)CN)C(N)=O` [DFT514, GLLSALKALGKLL] (H-GLLSALKALGKLL-NH2; N-terminus assumed), the “MIC K. pneumoniae” value in the data set on K. pneumoniae ATCC 13883 (ATCC 13883) came to 3.1 µM (≈ 4.02 µg/mL). In the data set with P. aeruginosa PAO1 (PAO1), the “MIC P. aeruginosa PAO1” value was more than 25 µM. In addition, in the data set with S. aureus USA300 (USA300), the “MIC S. aureus USA 300” value is 1.56 µM (≈ 2.02 µg/mL). The molecule also had an HL50 in data set [1] of 36 µM. In the data set with E. coli ATCC 25922 (ATCC 25922), the “MIC E. coli ATCC 25922” value was 3.1 µM (≈ 4.02 µg/mL).

For the molecule `CC(C)C[C@H](NC(=O)[C@H](CC(C)C)NC(=O)[C@H](CCCCN)NC(=O)CNC(=O)[C@H](CC(C)C)NC(=O)[C@H](C)NC(=O)[C@H](CCCN)NC(=O)[C@H](CC(C)C)NC(=O)[C@H](C)NC(=O)[C@H](CO)NC(=O)[C@H](CC(C)C)NC(=O)[C@H](CC(C)C)NC(=O)CN)C(N)=O` [DFT515, GLLSALOALGKLL] (H-GLLSAL[Orn]ALGKLL-NH2; N-terminus assumed), the “MIC K. pneumoniae” value against K. pneumoniae ATCC 13883 (ATCC 13883) is 3.1 µM (≈ 3.97 µg/mL). The “MIC P. aeruginosa PAO1” value against P. aeruginosa PAO1 (PAO1) is more than 25 µM. In the data set with S. aureus USA300 (USA300), the “MIC S. aureus USA 300” value turned out to be 1.56 µM (≈ 2 µg/mL). Also, the HL50 in data set [1] was 36 µM. Besides, the “MIC E. coli ATCC 25922” value in the data set on E. coli ATCC 25922 (ATCC 25922) is 3.1 µM (≈ 3.97 µg/mL).

Turning to `CC(C)C[C@H](NC(=O)[C@H](CC(C)C)NC(=O)[C@H](CCCN)NC(=O)CNC(=O)[C@H](CC(C)C)NC(=O)[C@H](C)NC(=O)[C@H](CCCN)NC(=O)[C@H](CC(C)C)NC(=O)[C@H](C)NC(=O)[C@H](CO)NC(=O)[C@H](CC(C)C)NC(=O)[C@H](CC(C)C)NC(=O)CN)C(N)=O` [DFT516, GLLSALOALGOLL] (H-GLLSAL[Orn]ALG[Orn]LL-NH2; N-terminus assumed), the “MIC K. pneumoniae” value in the data set with K. pneumoniae ATCC 13883 (ATCC 13883) worked out at 3.1 µM (≈ 3.93 µg/mL). In addition, the “MIC P. aeruginosa PAO1” value with P. aeruginosa PAO1 (PAO1) is more than 25 µM. In addition, the “MIC S. aureus USA 300” value against S. aureus USA300 (USA300) came to 1.56 µM (≈ 1.98 µg/mL). The molecule also gave an HL50 in data set [1] of 36 µM. In addition, the “MIC E. coli ATCC 25922” value in the data set on E. coli ATCC 25922 (ATCC 25922) lay in the range of 3.1 to 6.25 µM.

Regarding `CC(C)C[C@H](NC(=O)[C@H](CC(C)C)NC(=O)[C@H](CCCCN)NC(=O)CNC(=O)[C@H](CC(C)C)NC(=O)[C@H](CO)NC(=O)[C@H](CC(C)C)NC(=O)[C@H](CO)NC(=O)[C@H](CC(C)C)NC(=O)[C@H](CC(C)C)NC(=O)CN)C(N)=O` [DFT524, GLLSL-SL-GKLL] (H-GLLSLSLGKLL-NH2; N-terminus and C-terminus assumed), in the data set on K. pneumoniae ATCC 13883 (ATCC 13883), the “MIC K. pneumonia ATCC 13883” value was more than 25 µM. For the same molecule, the “MIC P. aeruginosa PAO1” value with P. aeruginosa PAO1 (PAO1) was more than 25 µM. In the data set on S. aureus USA300 (USA300), the “MIC S. aureus USA 300” value is more than 25 µM. Moreover, the HL50 in data set [1] was more than 300 µM. Moreover, in the data set with E. coli ATCC 25922 (ATCC 25922), the “MIC E. coli ATCC 25922” value was more than 25 µM.
